Source: patent US11056705B2, “Organic anolyte materials for flow batteries” (THE REGENTS OF THE UNIVERSITY OF MICHIGAN, priority 2015, dated 2021)
Several values for one entry are separate records, joined by “and”; a condition that tells them apart may be missing. Identical values can stand only once.

Assays:
[1] = Simulation of CVs fit to experimental data: Li+ association/dissociation with charged anolyte; assay type: physicochemical
Procedure: To obtain values for the rates for association as well as the equilibrium constant for formation of Li-9a, the redox system proposed in Scheme 9 was computationally modeled. Diffusion constants for the anolyte were calculated to be on the order of 2×10^−9 m^2/s by analysis of changes in the potential at the first reductive couple with variable scan rates. This value was applied for all species in the simulation based on their similar molecular weights. A resistance of 400 ohms and no capacitance was simulated for all couples. With these parameters, the simulations were fit to experimental data acquired at variable scan rates (FIG. 9) in order to estimate the rate constants for association and dissociation of Li^+. The experimentally measured CVs features were accurately reproduced when the rate constant for Li^+ coordination was 10 M^−1s^−1 and the rate constant for dissociation was 0.5 s^−1. These rate constants indicate that the equilibrium constant for binding of Li^+ to 9a^(−) is on the order of 20 M^−1.
This system was further investigated at higher concentrations of Li^+. CVs were acquired at concentrations of LiBF4 ranging from 57 mM to 260 mM with a constant 0.1 M concentration of 9a (FIG. 9b; solid lines). As expected, higher concentrations of LiBF4 led to greater currents from the oxidation of Li-9a. The calculated rate constants (ki=10 M^−1s^−1, k^−1=0.5 s^−1) were employed to model the effects of LiBF4 concentration on the current peak-heights. The results are illustrated in FIG. 9b (dashed lines) and are in full agreement with the experimentally measured CVs.

[2] = Cyclic voltammetry (CV) of anolyte candidates in a three-electrode cell; assay type: physicochemical; details: for current ratio i9a(−)/iLi-9a: 0.1 M LiBF4 in MeCN; for baseline (initial) current at starting potential of +1 V: MeCN/LiBF4, 0.01 M, 100 mV/s
[3] = Stability of solutions in MeCN monitored by 1H NMR or UV-vis spectroscopy; assay type: physicochemical
Procedure: The stabilities of 10a, 10a^(•) and Na-10a^(−) were monitored as solutions in MeCN by ^1H NMR spectroscopy or UV-vis spectroscopy. Separate solutions of 10a, 10a^(•) and Na-10a^(−) in MeCN were prepared at 480 mM, 540 mM and 39 mM concentrations, respectively. The parent compound 10a was monitored by ^1H NMR spectroscopy against an internal standard of 1,3,5-trimethoxybenzene. […] Solutions of the reduced species 10a^(•) and Na-10a^(−) were stored at room temperature under nitrogen, and the concentrations of the solutions were measured periodically over 36 h or 48 h by UV-vis spectroscopy (FIG. 13).

[4] = physchem; details: organic solvent or mixture, thermodynamic from solid
[5] = Solubility in MeCN by UV-vis spectroscopy under inert atmosphere
[6] = simulation fit to experimental CVs at variable scan rates, MeCN/LiBF4
[7] = MeCN/LiBF4, cathodic sweep starting at +1 V

diffusion constant ([1]; from changes in potential at the first reductive couple with variable scan rates) | equilibrium constant for binding of Li^+ ([1]; from the fitted rate constants) | current ratio i9a(−)/iLi-9a ([2]; 50 mV/s) | current ratio i9a(−)/iLi-9a ([2]; 200 mV/s) | current ratio i9a(−)/iLi-9a ([2]; 500 mV/s) | potential at which charged anolyte is oxidized (discharged) ([2]; MeCN, 0.1 M LiBF4) | current at +0.4 V (lithium adduct formation) ([2]; MeCN, 0.1 M LiBF4, 200 mV/s) | first single-electron reduction (step i) [2, 7] | second single-electron reduction (step ii) [2, 7] | decomposition in solution ([3]; 480 mM in MeCN, 1H NMR vs internal standard, four days, in the presence of air and moisture) | solubility [4] | difference of first reduction potential, 9a versus 10a ([2]; MeCN/LiBF4) | peak height ratios of two reductive couples ([2]; MeCN/LiBF4) | second reduction more positive than that of 9a ([2]; MeCN/LiBF4) | baseline (initial) current at starting potential of +1 V [2] | concentration of solution on storage ([3]; MeCN, room temperature under nitrogen, UV-vis over 36 h or 48 h, 540 mM (10a•), 39 mM (Na-10a−)) | solubility (saturation concentration) [5] | Compound | rate constant for Li^+ coordination [1, 6] | rate constant for dissociation [1, 6]
~2×10^−9 m^2/s | ~20 M⁻¹ | 32 | 11 | 6 | −1.7 V | almost no current was detected | −1.1 V | −1.9 V |  |  |  |  |  |  |  |  | COC(=O)c1cc[n+](C)cc1.F[B-](F)(F)F [Compound 9a] | 10 M⁻¹ s⁻¹ | 0.5 s⁻¹
 |  |  |  |  |  |  |  |  | No measurable decomposition | 1600 ± 100 mM | 0.1 V | close to 1 | 0.4 V | no analogous current is observed |  |  | CC(=O)c1cc[n+](C)cc1 [Compound 10a] |  | 
 |  |  |  |  |  |  |  |  |  |  |  |  |  | 40-50 μA and 45 μA | did not change | 62 ± 7 mM | CC([O-])=C1C=CN(C)C=C1.[Na+] [Na-10a^(−)] |  | 
